# Measured values published in ChEMBL document CHEMBL4411303, “Synthesis of tetrazole derivatives bearing pyrrolidine scaffold and evaluation of their antifungal activity against Candida albicans” (Eur J Med Chem, 2019).
# Active and inactive are the calls of the source. The calls are words filed in the database; no cut-off is given here.
# Experiments:
# Candida albicans [1] = experiment: Antifungal activity against Candida albicans ATCC 90028 assessed as planktonic growth inhibition at 0.09 uM after 48 hrs by M27-A3 protocol based method relative to control; format: functional; settings: ATCC 90028, 48 h, read-out: GI
# Candida albicans [2] = experiment: Antifungal activity against Candida albicans ATCC 90028 assessed as planktonic growth inhibition at 0.2 uM after 48 hrs by M27-A3 protocol based method relative to control; format: functional; settings: ATCC 90028, 48 h, read-out: GI
# Candida albicans [3] = experiment: Antifungal activity against Candida albicans ATCC 90028 assessed as planktonic growth inhibition at 0.4 uM after 48 hrs by M27-A3 protocol based method relative to control; format: functional; settings: ATCC 90028, 48 h, read-out: GI
# Candida albicans [4] = experiment: Antifungal activity against Candida albicans ATCC 90028 assessed as planktonic growth inhibition at 0.7 uM after 48 hrs by M27-A3 protocol based method relative to control; format: functional; settings: ATCC 90028, 48 h, read-out: GI
# Candida albicans [5] = experiment: Antifungal activity against Candida albicans ATCC 90028 assessed as planktonic growth inhibition at 1.5 uM after 48 hrs by M27-A3 protocol based method relative to control; format: functional; settings: ATCC 90028, 48 h, read-out: GI
# Candida albicans [6] = experiment: Antifungal activity against Candida albicans ATCC 90028 assessed as planktonic growth inhibition at 3 uM after 48 hrs by M27-A3 protocol based method relative to control; format: functional; settings: ATCC 90028, 48 h, read-out: GI
# Candida albicans [7] = experiment: Antifungal activity against Candida albicans ATCC 90028 assessed as planktonic growth inhibition at 6 uM after 48 hrs by M27-A3 protocol based method relative to control; format: functional; settings: ATCC 90028, 48 h, read-out: GI
# Candida albicans [8] = experiment: Antifungal activity against Candida albicans ATCC 90028 assessed as planktonic growth inhibition at 12 uM after 48 hrs by M27-A3 protocol based method relative to control; format: functional; settings: ATCC 90028, 48 h, read-out: GI
# Candida albicans [9] = experiment: Antifungal activity against Candida albicans ATCC 90028 assessed as planktonic growth inhibition at 23.9 uM after 48 hrs by M27-A3 protocol based method relative to control; format: functional; settings: ATCC 90028, 48 h, read-out: GI
# Candida albicans [10] = experiment: Antifungal activity against Candida albicans ATCC 90028 assessed as planktonic growth inhibition at 47.9 uM after 48 hrs by M27-A3 protocol based method relative to control; format: functional; settings: ATCC 90028, 48 h, read-out: GI
# Candida albicans [11] = experiment: Fungicidal activity against Candida albicans ATCC 90028 assessed as log reduction in fungal load incubated for 48 hrs followed by replating on sabouraud dextrose agar plate and measured after 48 hrs; format: functional
# Vero = experiment: Cytotoxicity against African green monkey Vero cells assessed as reduction in cell viability at 383.2 uM after 18 hrs by XTT assay relative to control; format: cell-based; settings: chlorocebus sabaeus
# [12] = Selectivity index, ratio of CC50 for African green monkey Vero cells to IC50 for Candida albicans ATCC 90028; format: toxicity; settings: read-out: Ratio CC50/IC50
# [13] = Toxicity in Galleria mellonella larvae assessed as survival rate at 47.9 uM measured after 18 hrs (reference value: 100%)
# [14] = Toxicity in Galleria mellonella larvae assessed as survival rate at 47.9 uM measured after 48 hrs (reference value: 100%)
# [15] = Toxicity in Galleria mellonella larvae assessed as survival rate at 47.9 uM measured after 120 hrs (reference value: 100%)
# [16] = Toxicity in Galleria mellonella larvae assessed as movement melanization at 47.9 uM measured after 18 hrs (reference value: 0%)
# [17] = Toxicity in Galleria mellonella larvae assessed as movement melanization at 47.9 uM measured after 48 hrs (reference value: 0%)
# [18] = Toxicity in Galleria mellonella larvae assessed as movement melanization at 47.9 uM measured after 128 hrs (reference value: 0%)
# [19] = Toxicity in Galleria mellonella larvae assessed as cocoon formation at 47.9 uM measured after 18 hrs (reference value: 60 +/- 20%)
# [20] = Toxicity in Galleria mellonella larvae assessed as cocoon formation at 47.9 uM measured after 48 hrs (reference value: 85 +/- 5%)
# [21] = Toxicity in Galleria mellonella larvae assessed as cocoon formation at 47.9 uM measured after 48 hrs (reference value: 100 +/- 0%)
# Candida albicans [22] = experiment: Antibiofilm activity against Candida albicans ATCC 90028 assessed as inhibition of biofilm formation […] after 24 hrs by XTT assay relative to control; format: functional, organism-based; settings: ATCC 90028, 24 h
# Candida albicans [23] = experiment: Antifungal activity against Candida albicans ATCC 90028 assessed as reduction in cell growth after 48 to 72 hrs by M27-A3 protocol based method; format: functional
# Candida albicans [24] = experiment: Antifungal activity against Candida albicans ATCC 90028 assessed as reduction in cell growth after 48 to 72 hrs in presence of ergosterol by M27-A3 protocol based method; format: functional
# Candida albicans [25] = experiment: Inhibition of Candida albicans ATCC 90028 cell adhesion to human TR146 cells at reduction in cell adherence at 47.9 uM relative to control; format: functional; settings: ATCC 90028, TR146
# Candida albicans [26] = experiment: Induction of reactive oxygen species generation in Candida albicans ATCC 90028 assessed as ROS level at 47.9 uM after 18 hrs by DCFDA probe based flow cytometry (reference value: 0.3%); format: functional
# Candida albicans [27] = experiment: Induction of Candida albicans ATCC 90028 internalization in mouse RAW264.7 cells assessed as reduction in fungus-induced cell damage by measuring live and early apoptotic cells at 47.9 uM after 2 hrs acridine orange/ethidium bromide staining based confocal scanning microscopic analysis; format: functional, organism-based
compound,measurement,setting,value
c1ccc(-c2nnn(CCCN3CCCC3c3ccccc3)n2)cc1 (stereo not drawn),inhibition of growth at 0.09 µM,Candida albicans [1],99.2%
same,inhibition of growth at 0.2 µM,Candida albicans [2],99.3%
same,inhibition of growth at 0.4 µM,Candida albicans [3],99.3%
same,inhibition of growth at 0.7 µM,Candida albicans [4],99.2%
same,inhibition of growth at 1.5 µM,Candida albicans [5],99.3%
same,inhibition of growth at 3 µM,Candida albicans [6],99.3%
same,inhibition of growth at 6 µM,Candida albicans [7],99.3%
same,inhibition of growth at 12 µM,Candida albicans [8],99.4%
same,inhibition of growth at 23.9 µM,Candida albicans [9],99.3%
same,inhibition of growth at 47.9 µM,Candida albicans [10],99.2%
same,log(activity),Candida albicans [11],-0.4
same,Activity,Vero,100%
same,selectivity ratio,[12],2
same,"survival at 18 h, 47.9 µM",[13],100%
same,"survival at 48 h, 47.9 µM",[14],100%
same,"survival at 120 h, 47.9 µM",[15],97%
same,Activity,[16],0%
same,Activity,[17],0%
same,Activity,[18],0%
same,Activity,[19],67%
same,Activity,[20],77%
same,Activity,[21],93%
same,IC50,Candida albicans [22],23.9 µM
same,MIC,Candida albicans [23],11.9 µM
same,MIC,Candida albicans [24],23.9 µM
same,inhibition at 47.9 µM,Candida albicans [25],> 95%
same,Activity,Candida albicans [26],12 - 16%
same,Activity,Candida albicans [27],Active
